Assay [1] has as its system protein kinase activity of the resident proteins present in the MFGM. In words: Auto-phosphorylation of MFGM proteins with γ 32P-ATP, detected by SDS-PAGE and autoradiography. The assay is classed as biochemical, bovine. The settings on record: for effect on the phosphorylation pattern: valinomycin with or without KCl, ionophore A23187 + CaCl2. How it is done: MFGM and skim milk membranes (SMM) were incubated with γ ^32 P-ATP in the presence of protein phosphatase inhibitors (vanadate, 8-glycerophosphate, phosphotyrosine, phosphoserine, phosphothreonine, p-nitrophenyl phosphate) and 5 mM MgCl, and/or 3 mM MnCl, led to phosphorylation of proteins, as detected by SDS-PAGE and autoradiography. In the bovine MFGM, […] main radiolabelled protein bands were detected and ranged from 13-200 kDa (13, 15, 21, 24, 32, 35, 39, 45, 51, 66, 75, 100, 130, 200). In the human MFGM, 8 bands were indentified and ranged between 20-150 kDa five main bands corresponding to 51, 65, 66, 100, and 130, and three weaker bands corresponding to 21, 24 and 27 kDa. Phosphorylation of bovine skim milk membrane (SMM) proteins was observed only after the addition of 0.1% Triton X-100 to membranes. In this case, the three-four main radioactive bands were detected in a zone between 32 and 35 kDa, and one band in the 75 kDa range.
The presence of phosphatase inhibitors in the kinase media was necessary to see maximal levels of protein phosphorylation. The phosphorylation reaction would not take place when Mg^2+ and Mn^2+ were substituted for Ca^2+. Genistein, an inhibitor of protein tyrosine kinase activity caused approximately 50% inhibition of phosphorylation.
It is believed that the observed phosphorylation was a result of Mg^2+ or Mn^2+ --dependent protein kinase activity of the resident proteins present in the MFGM.

In assay [2] the test system is bovine mammary and human breast cancer cells. The conditions noted are these: including bovine mammary and human breast cancer cells; cited from earlier work.
Assay [3] relates to fatty acid binding protein (FABP/MDGI). In words: FABP phosphorylation in MFGM of milk from cows treated with bST (15 kDa band intensity on electrophoresis gel, FIG. 1). The conditions noted are these: for phosphorylated 15 kDa protein (FABP) relative to non-bST treated control cow: FIG. 1. The assay is classed as in vivo, cow. As to the method: The test for determining whether an animal has been treated with bST is performed by: 1) isolating the milk fat globule membranes (MFGM); 2) phosphorylating the MFGM; 3) and detecting the levels of phosphorylation of FABP in MFGM.
Milk fat globule membranes (MFGM) are prepared from the cream of fresh bovine milk. Between 100-200 ml fresh bovine milk from cows administered bST are collected. The cream is obtained by centrifugation of milk at 3,000×g for 20 min. It is then suspended in two volumes of 10 mM phosphate buffer, pH 7.4, containing 0.9% NaCl (PBS), and homogenized in a Warring blender for 45 sec. The homogenate is centrifuged at 100,000×g for 90 min. The MFGM pellet is washed once by resuspension in an initial volume of PBS, followed by centrifugation at 100,000×gfor 90 min. No cells (somatic cells) are found in the MFGM, as determined by light microscopy. MFGM may be either used immediately or stored at -80' C. for future use.
FABP/MDGI is involved in the binding and transport of milk fatty acids.
FIG. 1 is a bar graph showing intensity of a band on an electrophoresis gel showing FABP phosphorylation at the 15 kDalton level. The non-bST treated cow was used as a control. A sample from a milk bulk tank containing milk from cows treated with bST has only about a quarter of the phosphorylated 15 kDa protein.

For the molecule `N#CC(C#N)=NNc1cccc(Cl)c1` [CCCP, carbonyl-cyanide-m-chlorophenyl hydrazone], the “effect on the phosphorylation pattern” value in assay [1] is on record as “did not significantly alter”.

Regarding `C(=NC1CCCCC1)=NC1CCCCC1` [DCCD, dicyclohexylcarbodimide], the “effect on the phosphorylation pattern” value in assay [1] is reported as “did not significantly alter”.

Regarding `O=c1c(-c2ccc(O)cc2)coc2cc(O)cc(O)c12` [Genistein], the inhibition of phosphorylation result in assay [1] (kinase media with phosphatase inhibitors) is listed as “approximately 50%”.

Regarding `CC1OC(OC2CC(O)C3(CO)C4C(O)CC5(C)C(C6=CC(=O)OC6)CCC5(O)C4CCC3(O)C2)C(O)C(O)C1O` (stereo not drawn) [Oubain], the “effect on the phosphorylation pattern” value in assay [1] is “did not significantly alter”.

For the molecule `C=C1[C@@H]2CC[C@H]3[C@]4(C)C[C@H](O[C@@H]5O[C@H](CO)[C@@H](OS(=O)(=O)O)[C@H](OS(=O)(=O)O)[C@H]5OC(=O)CC(C)C)C[C@@H](C(=O)O)[C@H]4CC[C@]3(C2)[C@H]1O` [atractyloside], the “effect on the phosphorylation pattern” value in assay [1] is given as “did not significantly alter”.

With `CNc1ccc2oc(C[C@H]3O[C@@]4(CC[C@H]3C)O[C@H]([C@H](C)C(=O)c3ccc[nH]3)[C@H](C)C[C@H]4C)nc2c1C(=O)O` [ionophore A23187], in assay [1], the “effect on the phosphorylation pattern” value was “did not significantly alter”.

Regarding `CC(C)[C@@H]1NC(=O)[C@H](C)OC(=O)[C@@H](C(C)C)NC(=O)[C@@H](C(C)C)OC(=O)[C@H](C(C)C)NC(=O)[C@H](C)OC(=O)[C@@H](C(C)C)NC(=O)[C@@H](C(C)C)OC(=O)[C@H](C(C)C)NC(=O)[C@H](C)OC(=O)[C@@H](C(C)C)NC(=O)[C@@H](C(C)C)OC1=O` [valinomycin], the “effect on the phosphorylation pattern” value in assay [1] is “did not significantly alter”.

B1: MDGI/FABP: mammary derived growth inhibitor / fatty acid binding protein, a 15 kDa protein of the milk fat globule membrane (protein, UniProt P10790 2-133, looked up)
Fatty acid-binding protein, …: VDAFVGTWKLVDSKNFDDYMKSLGVGFATRQVGNMTKPTTIIEVNGDTVIIKTQSTFKNTEISFKLGVEFDETTADDRKVKSIVTLDGGKLVHVQKWNGQETSLVREMVDGKLILTLTHGTAVCTRTYEKQA
B1: the “growth of various cell types” value in assay [2] is “inhibits the growth”.

B2: bST: recombinant bovine somatotropin, growth hormone approved for use in dairy cows (protein, UniProt P01246 27-217, looked up)
Somatotropin: AFPAMSLSGLFANAVLRAQHLHQLAADTFKEFERTYIPEGQRYSIQNTQVAFCFSETIPAPTGKNEAQQKSDLELLRISLLLIQSWLGPLQFLSRVFTNSLVFGTSDRVYEKLKDLEEGILALMRELEDGTPRAGQILKQTYDKFDTNMRSDDALLKNYGLLSCFRKDLHKTETYLRVMKCRRFGEASCAF
As to B2, the “levels of phosphorylated MDGI/FABP” value in assay [3] (MFGM isolated from cows treated with bST vs non treated cows) was “significantly reduced”. Also, the FABP autophosphorylation activity result in assay [3] (cows treated with bST vs non treated cows) is recorded as “weaker”. Also, the “phosphorylated 15 kDa protein (FABP) relative to non-bST treated control cow” value is reported as “significant decrease” in assay [3] (individual cows treated with bST) and “about a quarter” in assay [3] (milk bulk tank sample containing milk from cows treated with bST).

These data come from patent publication US5635401A, “Method to detect hormone treatment in animals” (Cornell Research Foundation, Inc., priority 1995, dated 1997).
